Laboratory results published in patent US20250223301A1, “KINASE INHIBITORS, PREPARATION METHODS AND USES THEREOF” (InventisBio Co., Ltd., priority 2022, published 2025).

What was measured:
DGKa = DGKa (Homo sapiens (Human), UniProt P23743); assay: biochemical;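 also: biochemical DGK kinase assay, ADP-Glo luminescence from ADP made by phosphorylating 1,2-dioleoyl-sn-glycerol, 20 min compound preincubation then 40 min reaction at 25 °C, 1% DMSO control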
Description: The DGKa and DGKz kinase assays were performed using Promega ADP-Glo kit (Promega, Cat #V9102). One microliter test compound was added to a 384-well plate. Reactions were performed in a 5 uL volume by adding 2 uL mixture of DGK enzyme and ATP in assay buffer (50 mM MOPS pH 7.5, 100 mM NaCl, 10 mM MgCl2, 1 mM CaCl2, 0.0025% BSA, and 1 mM DTT). […] The enzyme solution was incubated with test compound at 25 ? for 20 min. […] The reaction was initiated by the addition of 2 uL of substrate solution (7 uM 1.2-dioleoyl-sn-glycerol, 5 mM octyl-b-D-glucopyranoside) in the 5 uL assay volume. The resulting mixture was incubated at 25° C. for 40 minutes. Next, 5 uL of ADP-Glo-reagent was added to the plate and incubated for 40 minutes. Then 10 uL of kinase detection reagent was added and incubated for 30 minutes. Luminescence was recorded using an Tecan SPARK microplate reader. 1% DMSO vehicle was used as control and no enzyme well was used as blank well.

DGKz = DGKz (Homo sapiens (Human), UniProt Q13574); assay: DGK ADP-Glo kinase assay (DGKz); assay type: biochemical; conditions: 5 nM DGKz, 15 uM ATP
Sequence of DGKz (Q13574 whole entry): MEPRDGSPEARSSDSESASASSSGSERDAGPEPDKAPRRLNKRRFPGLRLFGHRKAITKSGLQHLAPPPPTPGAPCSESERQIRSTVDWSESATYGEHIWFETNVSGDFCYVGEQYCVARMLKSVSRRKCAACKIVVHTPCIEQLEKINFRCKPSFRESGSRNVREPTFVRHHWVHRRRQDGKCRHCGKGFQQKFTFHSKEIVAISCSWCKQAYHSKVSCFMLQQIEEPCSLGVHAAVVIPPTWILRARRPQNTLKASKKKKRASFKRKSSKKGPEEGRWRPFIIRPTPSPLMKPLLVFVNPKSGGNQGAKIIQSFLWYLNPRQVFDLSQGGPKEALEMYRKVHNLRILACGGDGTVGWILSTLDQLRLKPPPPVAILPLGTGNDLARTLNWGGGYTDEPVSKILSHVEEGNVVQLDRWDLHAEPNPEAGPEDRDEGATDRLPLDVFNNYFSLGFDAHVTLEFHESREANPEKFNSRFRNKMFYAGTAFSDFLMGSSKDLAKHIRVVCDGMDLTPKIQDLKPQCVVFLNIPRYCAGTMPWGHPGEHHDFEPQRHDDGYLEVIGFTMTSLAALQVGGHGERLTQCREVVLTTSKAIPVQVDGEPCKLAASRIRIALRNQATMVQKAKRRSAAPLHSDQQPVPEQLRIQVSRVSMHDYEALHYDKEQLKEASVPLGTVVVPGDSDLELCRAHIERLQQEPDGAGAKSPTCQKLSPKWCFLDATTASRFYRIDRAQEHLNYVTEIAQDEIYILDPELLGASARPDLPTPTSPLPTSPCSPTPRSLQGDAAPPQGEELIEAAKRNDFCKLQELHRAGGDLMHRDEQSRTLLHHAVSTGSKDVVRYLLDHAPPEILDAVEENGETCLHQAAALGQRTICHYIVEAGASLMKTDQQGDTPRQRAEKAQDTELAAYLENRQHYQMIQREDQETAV
Description: Luminescence was recorded using an Tecan SPARK microplate reader.

PBMC = assay: Human PBMC IL-2 assay; assay type: cell-based; conditions: anti-CD3/CD28 stimulation overnight, IL-2 level
Method in brief: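 Healthy-donor frozen PBMC were thawed, rested 4 h at 37 °C and plated at ~200,000 cells/well. Cells were preincubated 60 min at 37 °C with compound solution (10 uM to 0.6 nM, 8 points, 4-fold, as added), then stimulated overnight with anti-CD3/CD28. Supernatant IL-2 was quantified by immunoassay kit and plotted against log compound concentration.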

Jurkat cells = assay: Jurkat IL-2 assay; assay type: cell-based; conditions: Homo sapiens, anti-CD3/CD28 stimulation overnight, IL-2 level
Method in brief: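 Cells in RPMI-1640 with 10% FBS received compound solution (5 uM to 2.3 nM, 8 points, 3-fold dilution) for 60 minutes at 37° C. They were then stimulated overnight at 37° C. with anti-CD3/CD28 antibody. IL-2 in the supernatant was quantified by immunoassay kit and plotted against log compound concentration.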

Sequence of DGKa (P23743 whole entry): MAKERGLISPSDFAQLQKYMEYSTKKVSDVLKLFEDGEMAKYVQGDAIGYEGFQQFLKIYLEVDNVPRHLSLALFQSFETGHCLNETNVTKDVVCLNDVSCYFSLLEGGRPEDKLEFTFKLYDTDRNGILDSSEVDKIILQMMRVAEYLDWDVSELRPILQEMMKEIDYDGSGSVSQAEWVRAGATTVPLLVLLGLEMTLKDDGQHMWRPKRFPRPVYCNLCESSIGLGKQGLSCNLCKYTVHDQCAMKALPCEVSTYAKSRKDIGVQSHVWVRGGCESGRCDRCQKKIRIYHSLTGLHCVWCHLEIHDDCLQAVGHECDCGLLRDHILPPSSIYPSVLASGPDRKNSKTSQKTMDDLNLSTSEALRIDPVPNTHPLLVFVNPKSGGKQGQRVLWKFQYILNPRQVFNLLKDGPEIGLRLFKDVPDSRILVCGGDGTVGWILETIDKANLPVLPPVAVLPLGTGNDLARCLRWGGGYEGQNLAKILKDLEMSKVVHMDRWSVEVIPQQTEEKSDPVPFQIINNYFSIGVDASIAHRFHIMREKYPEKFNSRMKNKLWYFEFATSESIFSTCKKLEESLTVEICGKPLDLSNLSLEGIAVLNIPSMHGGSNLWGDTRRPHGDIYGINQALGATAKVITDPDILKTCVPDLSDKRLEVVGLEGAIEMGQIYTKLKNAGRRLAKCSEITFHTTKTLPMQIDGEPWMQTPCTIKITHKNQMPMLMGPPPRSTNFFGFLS

| IC50 (DGKa) | IC50 (DGKz) | EC50 (Jurkat cells) | SMILES | EC50 (PBMC) |
| --- | --- | --- | --- | --- |
| 24 nM | 607 nM | – | CC[C@H]1CN([C@H](c2ccc(SC(F)(F)F)cc2)c2nc(C3CC3)cs2)[C@H](CC)CN1c1nc(=O)n(C)c2ccc(C#N)nc12 [Compound 57] | – |
| 5 nM | 103 nM | – | CC[C@H]1CN([C@@H](CC)c2ccc(SC(F)(F)F)cc2)[C@H](CC)CN1c1nc2nncn2c2ccc(C#N)nc12 (stereo in doubt) [Compound 68] | – |
| 10 nM | 116 nM | – | CC[C@H]1CN([C@H](C)c2ccc(S(F)(F)(F)(F)F)cc2)[C@H](CC)CN1c1nc2nncn2c2ccc(C#N)nc12 (stereo in doubt) [Compound 89] | – |
| 1 nM | 2050 nM | – | Cn1c(=O)nc(N2CCCc3c(C#CC4CC4)cccc32)c2nc(C#N)ccc21 [Compound 39] | – |
| 22 nM | 610 nM | – | CC[C@H]1CN([C@@H](c2ccc(S(F)(F)(F)(F)F)cc2)C2CC2)[C@H](CC)CN1c1nc(=O)n(C)c2ccc(C#N)nc12 (stereo in doubt) [Compound 118] | – |
| 4 nM | 29 nM | – | CC[C@H]1CN([C@@H](CC)c2cccc(C(F)(F)F)c2)[C@H](CC)CN1c1nc2nncn2c2ccc(C#N)nc12 (stereo in doubt) [Compound 105] | – |
| 10 nM | 346 nM | – | CC[C@H]1CN([C@H](CC)c2ccc(SC(F)(F)F)cc2)[C@H](CC)CN1c1nc2nncn2c2ccc(C#N)nc12 (stereo in doubt) [Compound 69] | – |
| 7 nM | 18 nM | – | CC[C@H]1CN([C@@H](CC)c2ccc(C(F)(F)F)nc2)[C@H](CC)CN1c1nc2nncn2c2ccc(C#N)nc12 (stereo in doubt) [Compound 111] | – |
| – | – | 54 nM | CCC[C@@H](c1ccc(Cl)cc1)N1C[C@H]2COc3c(c4nc(C#N)ccc4n(C)c3=O)N2C[C@H]1CC (stereo in doubt) [Compound 311] | 1 nM |
| – | – | 1620 nM | CC[C@H]1CN2[C@@H](COC[C@@H]2c2ccc(C(F)(F)F)cc2)CN1c1nc(=O)n(C)c2ccc(C#N)nc12 [Compound 193] | 1310 nM |
| – | – | 104 nM | CC[C@H]1CN([C@@H](CC)c2ccc(F)cc2F)[C@H](CC)CN1c1nc2nncn2c2ccc(C#N)nc12 (stereo in doubt) [Compound 194] | 79 nM |
| – | – | 7 nM | CC[C@@H]1CN2c3c(c(=O)n(C)c4ccc(C#N)nc34)OC[C@@H]2CN1[C@@H](CC)c1ccc(C)c(F)c1 (stereo in doubt) [Compound 339] | 13 nM |
| – | – | 598 nM | Cn1c(=O)nc(N2CCC[C@@]3(CC2)CC(c2ccc(OC(F)(F)F)cc2)=NO3)c2nc(C#N)ccc21 (stereo in doubt) [Compound 140] | 259 nM |
| – | – | 124 nM | CC[C@@H]1CN2c3c(c(=O)n(C)c4ccc(C#N)nc34)OC[C@@H]2CN1[C@H](c1ccc(Cl)cc1)c1ccccn1 (stereo in doubt) [Compound 156] | 83 nM |
| – | – | 12 nM | CC[C@@H]1CN2c3c(c(=O)n(C)c4ccc(C#N)nc34)OC[C@@H]2CN1[C@@H](c1ccc(F)cc1)c1nc(C2CC2)no1 (stereo in doubt) [Compound 159] | 41 nM |
| – | – | 506 nM | C[C@@H]1CN2c3c(c(=O)n(C)c4ccc(C#N)nc34)OC[C@@H]2CN1[C@H](C)c1ccc(Cl)cc1 (stereo in doubt) [Compound 270] | 616 nM |
| – | – | 364 nM | CC[C@H](c1ccc(C(F)(F)F)c(Cl)c1)N1C[C@H]2COc3c(c4nc(C#N)ccc4n(C)c3=O)N2C[C@H]1C (stereo in doubt) [Compound 323] | 474 nM |
| – | – | 9 nM | CC[C@@H](c1ccc(Cl)cc1F)N1C[C@H]2COc3c(c4nc(C#N)ccc4n(C)c3=O)N2C[C@H]1C (stereo in doubt) [Compound 308] | 18 nM |
| – | – | 519 nM | CC[C@@H]1CN2c3c(c(=O)n(C)c4ccc(C#N)nc34)OC[C@@H]2CN1[C@@H](CC)c1ccc(C(F)(F)F)c(F)c1 (stereo in doubt) [Compound 319] | 285 nM |
